Series [1] is described as follows: Simulated Intestinal Fluid (SIF) Stability Assay. Type of series: in vitro ADME, porcine. The conditions noted are these: pig, simulated intestinal fluid (SIF) with 1% porcine pancreatin, pH 6.5, Table 3-B. Here is the method:
Studies were carried out in simulated intestinal fluid (SIF) to evaluate intestinal stability of the peptide molecules of the instant invention. To prepare the SIF reagent, blank FASSIF was prepared by dissolving 0.348 g NaOH, 3.954 g sodium phosphate monobasic monohydrate and 6.186 g NaCl in a final volume of 1 liter water (final pH=6.5). To this solution, 24 g porcine pancreatin (Sigma catalog P7545) was added and stirred for 30 minutes (final pancreatin concentration is 2.4%). The solution was filtered through a cheese cloth and a No. 1 Whatman filter, and 10 ml aliquots were stored at −70° C. To run the reaction, a 10 ml aliquot was thawed at 37° C., and 125 ul aliquots were removed and mixed with an equal volume of blank FASSIF. The peptide stock solution (10 mM in 100% DMSO) was diluted 75-fold in blank FASSIF. A 50 μl aliquot of the diluted peptide was combined with 125 μl pancreatin (2.4%) and 125 μl blank FASSIF to yield final concentrations of 1% pancreatin and 22 μM peptide. The reactions were incubated at 37° C., and at various time points 50 μl aliquots were removed and added to 200 μl of quench solution containing 50% acetonitrile, 50% methanol, 5% formic acid, and 1 μg/ml internal standard. The quenched samples were centrifuged at 10,000 rpm for 10 minutes, and the supernatants were analyzed by LCMS/MS. The percent remaining at each time point was calculated based on the peak area response ratio of test to compound to internal standard. Half-lives were calculated by fitting to a first-order exponential decay equation using GraphPad.

The target of the next series is α4β7 (Homo sapiens, UniProt P13612+P26010). Kind of series: α4β7-MAdCAM Cell Adhesion Assay (RPMI 8866 human cells). It is filed as cell-based. Details: host or cells: RPMI 8866 human B lymphoblastoid cells. The conditions noted are these: Table 3-B, Potency (α4β7); range classes; read-out: α4β7 cell (Hu) IC50. An outline of the steps: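 Adhesion read-out: MTT absorbance at 570 nm minus no-cell wells, after three washes. Plates coated with rh MAdCAM-1/Fc received peptide dilutions plus 200,000 RPMI 8866 cells in Mn2+ (1 mM)-supplemented DMEM, 0.1% BSA, HEPES pH 7, incubated 30-45 min, 37 °C.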
α4β7, sequence (P13612 34-1032): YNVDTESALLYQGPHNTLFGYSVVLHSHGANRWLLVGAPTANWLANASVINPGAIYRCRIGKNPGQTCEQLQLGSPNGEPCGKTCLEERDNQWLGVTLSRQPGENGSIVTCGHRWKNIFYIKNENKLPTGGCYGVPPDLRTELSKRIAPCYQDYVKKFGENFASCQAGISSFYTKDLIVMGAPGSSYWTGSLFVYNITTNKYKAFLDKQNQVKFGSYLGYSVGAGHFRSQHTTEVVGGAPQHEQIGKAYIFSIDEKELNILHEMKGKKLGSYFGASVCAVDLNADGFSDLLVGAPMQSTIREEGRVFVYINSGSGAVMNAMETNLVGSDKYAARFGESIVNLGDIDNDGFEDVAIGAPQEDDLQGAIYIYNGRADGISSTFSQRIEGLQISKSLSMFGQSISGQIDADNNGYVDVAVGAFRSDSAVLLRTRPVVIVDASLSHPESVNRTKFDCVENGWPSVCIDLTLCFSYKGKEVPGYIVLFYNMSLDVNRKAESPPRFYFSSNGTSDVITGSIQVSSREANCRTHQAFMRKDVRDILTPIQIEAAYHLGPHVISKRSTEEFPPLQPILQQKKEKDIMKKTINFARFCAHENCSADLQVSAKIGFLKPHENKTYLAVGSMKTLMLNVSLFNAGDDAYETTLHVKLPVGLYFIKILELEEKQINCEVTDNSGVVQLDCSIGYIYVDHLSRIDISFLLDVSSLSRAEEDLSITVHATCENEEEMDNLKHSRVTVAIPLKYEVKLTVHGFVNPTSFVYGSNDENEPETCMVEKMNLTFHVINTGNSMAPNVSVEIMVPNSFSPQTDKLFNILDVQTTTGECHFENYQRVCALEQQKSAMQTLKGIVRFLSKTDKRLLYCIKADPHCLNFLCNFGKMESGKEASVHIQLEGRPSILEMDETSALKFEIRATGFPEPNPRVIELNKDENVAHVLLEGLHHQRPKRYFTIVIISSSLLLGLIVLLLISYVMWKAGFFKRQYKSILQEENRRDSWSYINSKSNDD
α4β7, sequence (P26010 20-798): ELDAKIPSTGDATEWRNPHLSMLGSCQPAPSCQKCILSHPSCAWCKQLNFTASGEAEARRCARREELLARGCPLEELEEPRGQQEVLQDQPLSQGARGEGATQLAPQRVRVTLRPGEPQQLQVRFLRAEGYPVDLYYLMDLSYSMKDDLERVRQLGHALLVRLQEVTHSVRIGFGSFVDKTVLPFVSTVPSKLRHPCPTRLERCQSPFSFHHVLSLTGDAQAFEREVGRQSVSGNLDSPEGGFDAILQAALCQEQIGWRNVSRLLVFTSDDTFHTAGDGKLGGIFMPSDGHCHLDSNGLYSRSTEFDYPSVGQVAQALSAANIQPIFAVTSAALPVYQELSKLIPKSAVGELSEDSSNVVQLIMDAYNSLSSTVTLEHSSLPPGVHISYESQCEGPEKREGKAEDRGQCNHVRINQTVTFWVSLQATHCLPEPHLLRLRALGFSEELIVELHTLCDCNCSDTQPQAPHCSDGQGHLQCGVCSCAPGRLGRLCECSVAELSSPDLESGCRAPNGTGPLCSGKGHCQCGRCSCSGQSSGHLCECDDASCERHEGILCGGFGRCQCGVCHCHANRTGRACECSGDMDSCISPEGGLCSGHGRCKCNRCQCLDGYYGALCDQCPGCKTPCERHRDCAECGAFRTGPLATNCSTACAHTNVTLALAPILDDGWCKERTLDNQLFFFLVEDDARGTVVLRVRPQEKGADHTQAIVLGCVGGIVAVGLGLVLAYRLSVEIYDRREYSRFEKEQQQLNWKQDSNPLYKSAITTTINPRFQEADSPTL

Where [2] appears, read: > means experiment was stopped at that time and half life was not reached, read-out: Stabilty SIF t1/2.

The term IC50 denotes the concentration that gives 50% inhibition.

Like-named read-outs stand apart in the source and are kept apart here. Numbered stars: 1 amine (or outer) side, 2 acyl side, 3 side chain; on linkers, the order of the positions; unused ones are H or OH. Bridge positions count the residues as written; N and C are the ends. Square brackets hold non-standard residues; d marks the D form. Peptide text beside a SMILES is read from it. I, II: the chains in the order shown. Phe(4-F) = N[C@@H](Cc1ccc(F)cc1)C(=O)O; 2Nal = N[C@@H](Cc1ccc2ccccc2c1)C(=O)O; Diglycolyl = O=C(COCC(=O)[*:2])[*:1]; NMeR = CN[C@@H](CCCNC(=N)N)C(=O)O; hPhe = N[C@@H](CCc1ccccc1)C(=O)O; β3hE = N[C@@H](CCC(=O)O)CC(=O)O; Cit = NC(=O)NCCC[C@H](N)C(=O)O; Pen = CC(C)(S)[C@H](N)C(=O)O; Dab = NCC[C@H](N)C(=O)O

With `CC(=O)N[C@@H]1C(=O)N(C)[C@@H](CCCNC(=N)N)C(=O)N[C@@H](CO)C(=O)N[C@@H](CC(=O)O)C(=O)N[C@@H]([C@@H](C)O)C(=O)N[C@@H](CC(C)C)C(=O)N[C@H](C(=O)N[C@@H](Cc2c[nH]c3ccccc23)C(=O)N[C@H](CCC(=O)O)C(=O)N[C@@H](CCN)C(N)=O)C(C)(C)SSC1(C)C` [compound 56] (Ac-[Pen][NMeR]SDTL[Pen]W[dE][Dab]-NH2; disulfide 1-7), the half-life at 22 μM in series [1] (setting [2]) was above 3 h. At α4β7, the IC50 is 500 to 1000 nM.

Consider `CC(=O)N[C@@H]1C(=O)N(C)[C@@H](CCCNC(=N)N)C(=O)N[C@@H](CO)C(=O)N[C@@H](CC(=O)O)C(=O)N[C@@H]([C@@H](C)O)C(=O)N[C@@H](CC(C)C)C(=O)N[C@H](C(=O)N[C@@H](Cc2ccc(F)cc2)C(=O)N[C@H](CCC(=O)O)C(=O)N[C@H](CCCCNC(=O)COCC(=O)NCCCC[C@@H](NC(=O)[C@@H](CCC(=O)O)NC(=O)[C@H](Cc2ccc(F)cc2)NC(=O)[C@H]2NC(=O)[C@H](CC(C)C)NC(=O)[C@H]([C@@H](C)O)NC(=O)[C@H](CC(=O)O)NC(=O)[C@H](CO)NC(=O)[C@H](CCCNC(=N)N)N(C)C(=O)[C@@H](NC(C)=O)C(C)(C)SSC2(C)C)C(N)=O)C(N)=O)C(C)(C)SSC1(C)C` [compound 107] (I: Ac-[Pen][NMeR]SDTL[Pen][Phe(4-F)][dE][dK]-NH2 / II: Ac-[Pen][NMeR]SDTL[Pen][Phe(4-F)][dE][dK]-NH2; disulfide I:1-I:7, II:1-II:7; linker I:10-II:10 via Diglycolyl), for which, in series [1] (setting [2]), the half-life at 22 μM is above 3 h. The IC50 on α4β7 was in the range of 25 to 50 nM.

As for `CC(=O)N[C@@H]1C(=O)N(C)[C@@H](CCCNC(=N)N)C(=O)N[C@@H](CO)C(=O)N[C@@H](CC(=O)O)C(=O)N[C@@H]([C@@H](C)O)C(=O)N[C@@H](CC(C)C)C(=O)N[C@H](C(=O)N[C@@H](Cc2c[nH]c3ccccc23)C(=O)N[C@@H](CCC(=O)O)CC(=O)N[C@H](CCCCNC(=O)COCC(=O)NCCCC[C@@H](NC(=O)C[C@H](CCC(=O)O)NC(=O)[C@H](Cc2c[nH]c3ccccc23)NC(=O)[C@H]2NC(=O)[C@H](CC(C)C)NC(=O)[C@H]([C@@H](C)O)NC(=O)[C@H](CC(=O)O)NC(=O)[C@H](CO)NC(=O)[C@H](CCCNC(=N)N)N(C)C(=O)[C@@H](NC(C)=O)C(C)(C)SSC2(C)C)C(N)=O)C(N)=O)C(C)(C)SSC1(C)C` [compound 1] (I: Ac-[Pen][NMeR]SDTL[Pen]W[β3hE][dK]-NH2 / II: Ac-[Pen][NMeR]SDTL[Pen]W[β3hE][dK]-NH2; disulfide I:1-I:7, II:1-II:7; linker I:10-II:10 via Diglycolyl), the half-life at 22 μM in series [1] (setting [2]) is above 3 h. Also, the IC50 on α4β7 fell in the range of 50 to 100 nM.

As to `CC(=O)N[C@@H]1C(=O)N(C)[C@@H](CCCNC(=N)N)C(=O)N[C@@H](CO)C(=O)N[C@@H](CC(=O)O)C(=O)N[C@@H]([C@@H](C)O)C(=O)N[C@@H](CC(C)C)C(=O)N[C@H](C(=O)N[C@@H](Cc2c[nH]c3ccccc23)C(=O)O)C(C)(C)SSC1(C)C` [compound 127] (Ac-[Pen][NMeR]SDTL[Pen]W-OH; disulfide 1-7), in series [1] (alone or in parentheses after >360, read-out: Stabilty SIF t1/2, in hr (converted)), the half-life at 22 μM was 35 h. The IC50 on α4β7 is 100 to 500 nM.

Take `CC(=O)N[C@@H]1C(=O)N(C)[C@@H](CCCNC(=N)N)C(=O)N[C@@H](CO)C(=O)N[C@@H](CC(=O)O)C(=O)N[C@@H]([C@@H](C)O)C(=O)N[C@@H](CC(C)C)C(=O)N[C@H](C(=O)N[C@@H](CCc2ccccc2)C(=O)N[C@@H](CCC(=O)O)C(=O)N[C@H](CCCCNC(=O)COCC(=O)NCCCC[C@@H](NC(=O)[C@H](CCC(=O)O)NC(=O)[C@H](CCc2ccccc2)NC(=O)[C@H]2NC(=O)[C@H](CC(C)C)NC(=O)[C@H]([C@@H](C)O)NC(=O)[C@H](CC(=O)O)NC(=O)[C@H](CO)NC(=O)[C@H](CCCNC(=N)N)N(C)C(=O)[C@@H](NC(C)=O)C(C)(C)SSC2(C)C)C(N)=O)C(N)=O)C(C)(C)SSC1(C)C` [compound 45] (I: Ac-[Pen][NMeR]SDTL[Pen][hPhe]E[dK]-NH2 / II: Ac-[Pen][NMeR]SDTL[Pen][hPhe]E[dK]-NH2; disulfide I:1-I:7, II:1-II:7; linker I:10-II:10 via Diglycolyl): in series [1] (setting [2]), the half-life at 22 μM was 0.617 h. Besides, the IC50 at α4β7 lay in the range of 25 to 50 nM.

Turning to `CC(=O)N[C@@H]1C(=O)N(C)[C@@H](CCCNC(=N)N)C(=O)N[C@@H](CO)C(=O)N[C@@H](CC(=O)O)C(=O)N[C@@H]([C@@H](C)O)C(=O)N[C@@H](CC(C)C)C(=O)N[C@H](C(=O)N[C@@H](Cc2ccc3ccccc3c2)C(=O)N[C@H](Cc2ccc(O)cc2)C(=O)N[C@H](CCCCNC(=O)COCC(=O)NCCCC[C@@H](NC(=O)[C@@H](Cc2ccc(O)cc2)NC(=O)[C@H](Cc2ccc3ccccc3c2)NC(=O)[C@H]2NC(=O)[C@H](CC(C)C)NC(=O)[C@H]([C@@H](C)O)NC(=O)[C@H](CC(=O)O)NC(=O)[C@H](CO)NC(=O)[C@H](CCCNC(=N)N)N(C)C(=O)[C@@H](NC(C)=O)C(C)(C)SSC2(C)C)C(N)=O)C(N)=O)C(C)(C)SSC1(C)C` [compound 27] (I: Ac-[Pen][NMeR]SDTL[Pen][2Nal][dY][dK]-NH2 / II: Ac-[Pen][NMeR]SDTL[Pen][2Nal][dY][dK]-NH2; disulfide I:1-I:7, II:1-II:7; linker I:10-II:10 via Diglycolyl), the half-life at 22 μM in series [1] (setting [2]) is above 3 h. The IC50 on α4β7 lay within 25 to 50 nM.

Regarding `CC(=O)N[C@@H]1C(=O)N(C)[C@@H](CCCNC(=N)N)C(=O)N[C@@H](CO)C(=O)N[C@@H](CC(=O)O)C(=O)N[C@@H]([C@@H](C)O)C(=O)N[C@@H](CC(C)C)C(=O)N[C@H](C(=O)N[C@@H](Cc2c[nH]c3ccccc23)C(=O)N[C@@H](CCC(=O)O)C(=O)O)C(C)(C)SSC1(C)C` [compound 128] (Ac-[Pen][NMeR]SDTL[Pen]WE-OH; disulfide 1-7), the half-life at 22 μM in series [1] (setting [2]) is 3 h. At α4β7, the half-inhibitory concentration (IC50) is 50 to 100 nM.

For the compound `CC(=O)N[C@@H]1C(=O)N(C)[C@@H](CCCNC(=N)N)C(=O)N[C@@H](CO)C(=O)N[C@@H](CC(=O)O)C(=O)N[C@@H]([C@@H](C)O)C(=O)N[C@@H](CC(C)C)C(=O)N[C@H](C(=O)N[C@@H](Cc2c[nH]c3ccccc23)C(=O)N[C@H](Cc2c[nH]cn2)C(=O)N[C@H](CCCCNC(=O)COCC(=O)NCCCC[C@@H](NC(=O)[C@@H](Cc2c[nH]cn2)NC(=O)[C@H](Cc2c[nH]c3ccccc23)NC(=O)[C@H]2NC(=O)[C@H](CC(C)C)NC(=O)[C@H]([C@@H](C)O)NC(=O)[C@H](CC(=O)O)NC(=O)[C@H](CO)NC(=O)[C@H](CCCNC(=N)N)N(C)C(=O)[C@@H](NC(C)=O)C(C)(C)SSC2(C)C)C(N)=O)C(N)=O)C(C)(C)SSC1(C)C` [compound 104] (I: Ac-[Pen][NMeR]SDTL[Pen]W[dH][dK]-NH2 / II: Ac-[Pen][NMeR]SDTL[Pen]W[dH][dK]-NH2; disulfide I:1-I:7, II:1-II:7; linker I:10-II:10 via Diglycolyl), the half-life at 22 μM in series [1] (setting [2]) is 0.583 h. The IC50 on α4β7 lay within 100 to 500 nM.

For the compound `CC(=O)N[C@@H]1C(=O)N(C)[C@@H](CCCNC(=N)N)C(=O)N[C@@H](CO)C(=O)N[C@@H](CC(=O)O)C(=O)N[C@@H]([C@@H](C)O)C(=O)N[C@@H](CC(C)C)C(=O)N[C@H](C(=O)N[C@@H](Cc2c[nH]c3ccccc23)C(=O)N[C@@H](CCCNC(N)=O)C(=O)N[C@H](CCCCNC(=O)COCC(=O)NCCCC[C@@H](NC(=O)[C@H](CCCNC(N)=O)NC(=O)[C@H](Cc2c[nH]c3ccccc23)NC(=O)[C@H]2NC(=O)[C@H](CC(C)C)NC(=O)[C@H]([C@@H](C)O)NC(=O)[C@H](CC(=O)O)NC(=O)[C@H](CO)NC(=O)[C@H](CCCNC(=N)N)N(C)C(=O)[C@@H](NC(C)=O)C(C)(C)SSC2(C)C)C(N)=O)C(N)=O)C(C)(C)SSC1(C)C` [compound 84] (I: Ac-[Pen][NMeR]SDTL[Pen]W[Cit][dK]-NH2 / II: Ac-[Pen][NMeR]SDTL[Pen]W[Cit][dK]-NH2; disulfide I:1-I:7, II:1-II:7; linker I:10-II:10 via Diglycolyl), in series [1] (setting [2]), the half-life at 22 μM is below 0.333 h. On α4β7, the half-inhibitory concentration (IC50) lay in the range of 10 to 25 nM.

The record behind these values is patent US9809623B2, “α4β7 peptide monomer and dimer antagonists” (Protagonist Therapeutics, Inc., priority 2014, dated 2017).
